According to paper PMC8951032, “Study of Biological Activities and ADMET-Related Properties of Novel Chlorinated N-arylcinnamamides” (International Journal of Molecular Sciences, 2022):
Values after ≈ are worked out from the molar mass of the structure shown. Where two headings read alike, the source gives them in different places.

Tests used:
[1] = Lipophilicity determination by RP-HPLC (log k, log D); assay type: physicochemical; conditions: for log k: MeOH 72%/H2O 28%; for log D6.5: MeOH 72%/acetate buffered saline pH 6.5; for log D7.4: MeOH 72%/acetate buffered saline pH 7.4
Experimental: In addition to the mentioned ADME profile, it is responsible for interactions with biological targets. Lipophilicity is recognized as one of the most important parameters influencing ADME and bioactivity and is also part, e.g., of Lipinski’s Rule of Five (Ro5). This thermodynamic parameter describing the molecule’s affinity for an aqueous or relatively lipophilic environment can be characterized by the logarithm of the partition coefficient (log P). In this study, lipophilicity was measured by reversed-phase high-performance liquid chromatography (RP-HPLC) under isocratic conditions with methanol as the organic modifier in the aqueous mobile phase and the logarithm of the capacity factor k was calculated, which is used as the lipophilicity index converted to the log P scale. In addition to the log k values, the logarithm of the distribution coefficient DpH at pH 6.5 and 7.4 was determined to clarify the behavior of the compounds under physiological conditions and possible ionization. Instead of water, a buffer of suitable pH was used as part of the mobile phase. In addition to the above-mentioned experimental methods, commercially available ChemBioDraw Ultra 13.0 and ACD/Percepta ver. 2012 programs were used to calculate the lipophilicity values of all prepared compounds.
A HPLC separation module Waters Alliance 2695 XE equipped with a Waters Dual Absorbance Detector 2486 (Waters Corp., Milford, MA, USA) was used. A chromatographic column Symmetry® C18 5 μm, 4.6 × 250 mm, Part No. W21751W016 (Waters Corp., Milford, MA, USA) was used. The HPLC separation process was monitored by Empower® 3 Chromatography Manager Software (Waters Corp.). Isocratic elution by a mixture of MeOH p.a. (72%) and H2O-HPLC Mili-Q grade (28%) as a mobile phase was used for the determination of capacity factor k. Isocratic elution by a mixture of MeOH p.a. (72%) and acetate buffered saline (pH 7.4 and pH 6.5) (28%) as a mobile phase was used for the determination of distribution coefficient expressed as D7.4 and D6.5. The total flow of the column was 1.0 mL/min, injection 20 μL, column temperature 40 °C, and sample temperature 10 °C. The detection wavelength of 210 nm was chosen. A KI methanolic solution was used for the determination of the dead times (tD). Retention times (tR) were measured in minutes. The capacity factors k were calculated according to the formula k = (tR − tD)/tD, where tR is the retention time of the solute, and tD is the dead time obtained using an unretained analyte. The distribution coefficients DpH were calculated according to the formula DpH = (tR − tD)/tD. Each experiment was repeated three times.

[2] = test system: methicillin-resistant S. aureus (MRSA) 63718; test: In vitro antistaphylococcal activity, microtitration broth MIC; assay type: cell-based; conditions: Staphylococcus aureus
[3] = test system: Enterococcus faecalis ATCC 29212; test: In vitro antienterococcal activity, microtitration broth MIC; assay type: cell-based
[4] = test system: vancomycin-resistant E. faecalis (VRE) 342B; test: as above; assay type: cell-based, Enterococcus faecalis; conditions: 24 h
[5] = test system: vancomycin-resistant E. faecalis (VRE) 368; test: as above; assay type: cell-based, Enterococcus faecalis
[6] = test system: vancomycin-resistant E. faecalis (VRE) 725B; test: as above; assay type: cell-based, Enterococcus faecalis; conditions: 24 h
[7] = test system: human monocytic leukemia cell line THP-1; test: In vitro cell viability, CCK-8; assay type: cell-based; conditions: Homo sapiens, THP-1
Experimental: (§1) The effect of the compounds on viability of eukaryotic cells was evaluated on human leukemia cell line THP-1, human synovial cell line SW982, and isolated primary porcine monocytes-delivered macrophages (MDM). The general cytotoxic effect was studied on THP-1 cells in the serum-free medium (only THP-1 as the only cells used in this study are able to survive in serum-free medium). Most of the compounds had no cytotoxic effect on THP-1 cells. […] This could be caused by the direct interaction of such compounds with serum proteins or by the effect of mitogens, cytokines, and hormones present in the serum. Obviously, the full medium is closer to physiological conditions in living organisms, so it can be assumed that these compounds could be non-toxic there.
(§2) Human monocytic leukemia cell line THP-1 and human synovial cell line SW982 were purchased from the European Collection of Cell Cultures (ECACC, Salisbury, UK) and were used for determination of the influence of test compounds on cell viability, as described previously. These cell lines represent typical suspension and adherent cells, respectively. They were cultivated with test substances in the presence or absence of fetal bovine serum (FBS) in the cultivation medium, and the relative cell viability (the ratio between cells treated with compounds and cells treated only with DMSO) was determined by CCK-8 kit (Sigma) after 24 h.

[8] = test system: human synovial cell line SW982; test: In vitro cell viability, CCK-8; assay type: cell-based; conditions: 10% fetal bovine serum
Experimental: as §1, §2

[9] = test system: porcine monocyte-derived macrophages (MDM); test: In vitro cell viability, CCK-8; assay type: cell-based; conditions: Sus scrofa, Macrophage, 10% fetal bovine serum
Experimental: as §1
Porcine monocyte-derived macrophages (MDMs) were prepared, as described previously. Briefly, blood was collected from three-month-old pigs and peripheral blood mononuclear cells (PBMC) were isolated by gradient centrifugation (830× g, 40 min) using Histopaque-1077 (Sigma). CD14+ cells were isolated by positive magnetic bead selection with LS separation columns (Miltenyi Biotec, Bergisch Gladbach, Germany). Isolated monocytes were cultured in 96-well plates at a concentration of 1 × 10^5 cells per well in 0.2 mL of DMEM supplemented with 10% FBS and 1% antibiotics (Antibiotic Antimycotic Solution 100 × 10,000 units penicillin, 10 mg streptomycin, and 25 μg amphotericin B per mL; Sigma) and incubated for five days at 37 °C in 5% CO2 to differentiate into macrophages. Then, MDMs were cultured for 24 h with tested substances and the relative cell viability was determined by CCK-8 kit (Sigma) following manufacturer instructions.

[10] = test system: S. aureus, MRSA, E. faecalis, VRE, M. smegmatis, M. marinum; test: In vitro antimicrobial screening, all tested strains; assay type: cell-based; conditions: antibacterial/antimycobacterial screening
[11] = 24 h, MRSA 63718, read-out: log(1/MIC [M]) MRSA1 (converted)
[12] = MRSA 63718, 24 h, read-out: MIC MRSA1
[13] = ATCC29212, 24 h, E. faecalis reference strain, read-out: log(1/MIC [M]) EF (converted)
[14] = ATCC29212, E. faecalis reference strain, 24 h, read-out: MIC EF
[15] = read-out: log(1/MIC [M]) VRE1 (converted)
[16] = 24 h, VRE 368, read-out: log(1/MIC [M]) VRE2 (converted)
[17] = VRE 368, 24 h, read-out: MIC VRE2
[18] = read-out: log(1/MIC [M]) VRE3 (converted)
[19] = 10% fetal bovine serum, 24 h, read-out: IC50 THP-1 10% FSB
[20] = 10% fetal bovine serum, read-out: log(1/IC50 [M]) THP-1 10% FSB (converted)
[21] = serum-free medium, 24 h, read-out: IC50 THP-1 SFM
[22] = serum-free medium, read-out: log(1/IC50 [M]) THP-1 SFM (converted)
[23] = 24 h, read-out: IC50 SW982 10% FSB
[24] = read-out: log(1/IC50 [M]) SW982 10% FSB (converted)
[25] = 24 h, read-out: IC50 MDM 10% FSB
[26] = read-out: log(1/IC50 [M]) MDM 10% FSB (converted)

| Compound | log k [1] | log D6.5 [1] | log D7.4 [1] | MIC [2, 11] [M] | MIC [2, 12] [M] | MIC [3, 13] [M] | MIC [3, 14] [M] | MIC ([4]; read-out: MIC VRE1) [M] | MIC [4, 15] [M] | MIC [5, 16] [M] | MIC [5, 17] [M] | MIC ([6]; read-out: MIC VRE3) [M] | MIC [6, 18] [M] | IC50 [7, 19] [M] | IC50 [7, 20] [M] | IC50 [7, 21] [M] | IC50 [7, 22] [M] | IC50 [8, 23] [M] | IC50 [8, 24] [M] | IC50 [9, 25] [M] | other results |
| --- | --- | --- | --- | --- | --- | --- | --- | --- | --- | --- | --- | --- | --- | --- | --- | --- | --- | --- | --- | --- | --- |
| O=C(/C=C/c1ccc(Cl)cc1)Nc1cccc(C(F)(F)F)c1 [1i, (2E)-3-(4-Chlorophenyl)-N-[3-(trifluoromethyl)phenyl]prop-2-enamide] | 0.8612 | 0.8071 | 0.8105 | 6.17e-06 (≈ 2.01 µg/mL) | 6.14e-06 (≈ 2 µg/mL) | > 0.000794 | > 0.000786 | > 0.000786 | > 0.000794 | > 0.000794 | > 0.000786 | > 0.000786 | > 0.000794 | > 1e-05 | > 1e-05 | 2.9e-06 ± 1.2e-06 | 2.88e-06 | > 1e-05 | > 1e-05 | > 1e-05 | IC50 [9, 26]: > 1e-05 M; antimicrobial activity (in words) [10]: showed activity |
| O=C(/C=C/c1ccc(Cl)cc1)Nc1cc(Cl)cc(Cl)c1 [1p, (2E)-3-(4-Chlorophenyl)-N-(3,5-dichlorophenyl)prop-2-enamide] | 1.1899 | 1.1368 | 1.1366 | 3.8e-07 (≈ 0.124 µg/mL) | 3.83e-07 (≈ 0.125 µg/mL) | > 0.000776 | > 0.000783 | > 0.000783 | > 0.000776 | > 0.000776 | > 0.000783 | > 0.000783 | > 0.000776 | > 1e-05 | > 1e-05 | 2.5e-06 ± 1.1e-06 | 2.51e-06 | > 1e-05 | > 1e-05 | > 1e-05 | IC50 [9, 26]: > 1e-05 M; antimicrobial activity (in words) [10]: showed activity |
| O=C(/C=C/c1ccc(Cl)cc1)Nc1cc(C(F)(F)F)cc(C(F)(F)F)c1 [1q, (2E)-N-[3,5-bis(Trifluoromethyl)phenyl]-3-(4-chlorophenyl)prop-2-enamide] | 1.3064 | 1.2925 | 1.2980 | 3.16e-07 (≈ 0.125 µg/mL) | 3.18e-07 (≈ 0.125 µg/mL) | 0.000324 (≈ 127 µg/mL) | 0.000325 (≈ 128 µg/mL) | 0.00065 (≈ 256 µg/mL) | 0.000646 (≈ 254 µg/mL) | 0.000324 (≈ 127 µg/mL) | 0.000325 (≈ 128 µg/mL) | 0.000325 (≈ 128 µg/mL) | 0.000324 (≈ 127 µg/mL) | > 1e-05 | > 1e-05 | 1e-06 ± 1.1e-06 | 1e-06 | > 1e-05 | > 1e-05 | > 1e-05 | IC50 [9, 26]: > 1e-05 M; antimicrobial activity (in words) [10]: showed activity |
